Laboratory results from patent US11891601B2, “Method to enhance the transcription regulation of SUPT4H on genes containing repetitive nucleotide sequences” (National Yang-Ming University, priority 2018, dated 2024).

Test system: R-loops in genes containing lengthy CAG repeats, including mutant HTT
Assay: DIP assay of R-loops in genes with lengthy CAG repeats, including mutant HTT, in murine neuronal cells
Type: cell-based, mouse
Settings: 30 μM tropolone for 12 hours in Hdh cells
Protocol: Yeast cells were collected after culturing in 2% galactose-containing medium for 12 hours, and then grinded by glass beads in the presence of 300 μl extraction buffer (10 mM Tris-HCl pH 8.0, 10 mM EDTA, 200 mM NaCl, 1% SDS, 2% Triton X-100, 25 units RNase inhibitor). The nucleic acid mixture was subjected to sonication (Bioruptor UCD-200) and extracted by phenol (pH 8.0). Purified chromatin DNA and RNA, with or without RNase H treatment for 90 minutes, was precipitated by monoclonal antibody S9.6 bound to protein G agarose beads. […] The RNA/DNA hybrid (R-loop) signal was analyzed by qPCR and the Quantitative-Comparative CT (MCT) program. In yeast experiments, a pair of primers (Primer-B F and Primer-B R) were used to quantify R-loop signal in the vicinity of CAG repeats and the primer set AMP was used as a control. […] For Hdh^Q7/Q7 and Hdh^Q111/Q111, mouse HTT DIP primer set was used to quantify R-loop signal of the CAG repeating region and Tubal a DIP primer set was included as a control. […]
Please refer to FIG. 7. […] RNA was extracted and analyzed by real-time RT-qPCR to measure the quantity of HTT, SUPT4H and snRNA U6. […] HTT, SUPT4H, TATA-box binding protein (TBP) were measured. […] Analogous to FIG. 7(C), the quantification of HTT protein levels is shown in bottom panel.

Compound: O=c1cccccc1O [Tropolone]
- R-loops in genes containing lengthy CAG repeats, including mutant HTT: able to increase R-loops
